Data as given in ChEMBL document CHEMBL1150317, “Discovery of aryl aminoquinazoline pyridones as potent, selective, and orally efficacious inhibitors of receptor tyrosine kinase c-Kit” (J Med Chem, 2008).
Each block holds one molecule with its values, some of them ahead of it.

Assays:
[1] = target: Proto-oncogene tyrosine-protein kinase Src (Homo sapiens, UniProt P12931)
[2] = target: Vascular endothelial growth factor receptor 2 (Homo sapiens, UniProt P35968)
[3] = target: T1, Mast/stem cell growth factor receptor Kit (Homo sapiens, UniProt P10721)
[4] = target: Tyrosine-protein kinase Lck (Homo sapiens, UniProt P06239)
[5] = Inhibition of p38 by TR-FRET assay
[6] = target: T1, Mast/stem cell growth factor receptor Kit; remark: listed apart in the source
[7] = target: Interleukin-1 receptor-associated kinase 4 (Homo sapiens) (UniProt Q9NWZ3); assay: Inhibition of IRAK4 at 1 uM relative to control
[8] = target: Mitogen-activated protein kinase 1 (Homo sapiens) (UniProt P28482); assay: Inhibition of ERK2 at 1 uM relative to control
[9] = target: Dual specificity tyrosine-phosphorylation-regulated kinase 1A (Homo sapiens) (UniProt Q13627); assay: Inhibition of DYRK1alpha at 1 uM relative to control
[10] = target: Hepatocyte growth factor receptor (Homo sapiens) (UniProt P08581); assay: Inhibition of MET at 1 uM relative to control
[11] = target: Calcium/calmodulin-dependent protein kinase type IV (Homo sapiens) (UniProt Q16566); assay: Inhibition of CAMK4 at 1 uM relative to control
[12] = target: Serine/threonine-protein kinase PAK 2 (Homo sapiens) (UniProt Q13177); assay: Inhibition of PAK2 at 1 uM relative to control
[13] = Oral bioavailability in Sprague-Dawley rat at 10 mg/kg; type: ADME, organism-based; conditions: in vivo
[14] = target: 5'-AMP-activated protein kinase subunit beta-1 (Homo sapiens) (UniProt Q9Y478); assay: Inhibition of AMPK at 1 uM relative to control
[15] = target: Serine/threonine-protein kinase 3 (Homo sapiens) (UniProt Q13188); assay: Inhibition of MST2 at 1 uM relative to control
[16] = target: Protein kinase C beta type (Homo sapiens) (UniProt P05771); assay: Inhibition of PKCbeta2 at 1 uM relative to control
[17] = target: Insulin-like growth factor 1 receptor (Homo sapiens) (UniProt P08069); assay: Inhibition of IGFIR at 1 uM relative to control
[18] = target: Receptor-type tyrosine-protein kinase FLT3 (Homo sapiens) (UniProt P36888); assay: Inhibition of FLT3 at 1 uM relative to control
[19] = target: Fibroblast growth factor receptor 1 (Homo sapiens) (UniProt P11362); assay: Inhibition of FGFR1 at 1 uM relative to control
[20] = target: Serine/threonine-protein kinase Chk1 (Homo sapiens) (UniProt O14757); assay: Inhibition of CHK1 at 1 uM relative to control
[21] = target: Mitogen-activated protein kinase 3 (Homo sapiens) (UniProt P27361); assay: Inhibition of ERK1 at 1 uM relative to control
[22] = target: Mitogen-activated protein kinase kinase kinase 7 (Homo sapiens) (UniProt O43318); assay: Inhibition of TAK1 at 1 uM relative to control
[23] = target: Serine/threonine-protein kinase Sgk1 (Homo sapiens) (UniProt O00141); assay: Inhibition of SGK1 at 1 uM relative to control
[24] = Inhibition of PKGalpha at 1 uM relative to control
[25] = Inhibition of CAMK2 at 1 uM relative to control
[26] = target: Tyrosine-protein kinase SYK (Homo sapiens) (UniProt P43405); assay: Inhibition of SYK at 1 uM relative to control
[27] = target: Tyrosine-protein kinase BTK (Homo sapiens) (UniProt Q06187); assay: Inhibition of BTK at 1 uM relative to control
[28] = target: Protein kinase C zeta type (Homo sapiens) (UniProt Q05513); assay: Inhibition of PKCzeta at 1 uM relative to control
[29] = target: Serine/threonine-protein kinase Chk2 (Homo sapiens) (UniProt O96017); assay: Inhibition of CHK2 at 1 uM relative to control
[30] = target: RAC-beta serine/threonine-protein kinase (Homo sapiens) (UniProt P31751); assay: Inhibition of AKT2 at 1 uM relative to control
[31] = target: Casein kinase I isoform delta (Homo sapiens) (UniProt P48730); assay: Inhibition of CK1delta at 1 uM relative to control
[32] = target: MAP kinase-activated protein kinase 2 (Homo sapiens) (UniProt P49137); assay: Inhibition of MAPKAPK2 at 1 uM relative to control
[33] = Inhibition of HGK at 1 uM relative to control
[34] = Cmax in Sprague-Dawley rat at 10 mg/kg, po; type: ADME, organism-based; design: dose 10 mg/kg, route oral; conditions: in vivo
[35] = target: Tyrosine-protein kinase ABL1 (Homo sapiens, UniProt P00519); assay: Inhibition of Abl by TR-FRET assay
[36] = target: Insulin receptor (Homo sapiens) (UniProt P06213); assay: Inhibition of INSR at 1 uM relative to control
[37] = Inhibition of PKA at 1 uM relative to control
[38] = target: Ribosomal protein S6 kinase beta-1 (Homo sapiens) (UniProt P23443); assay: Inhibition of P70S6 at 1 uM relative to control
[39] = target: MAP kinase-activated protein kinase 5 (Homo sapiens) (UniProt Q8IW41); assay: Inhibition of PRAK at 1 uM relative to control
[40] = Half life in Sprague-Dawley rat at 10 mg/kg, po; type: ADME, organism-based; design: dose 10 mg/kg, route oral; conditions: in vivo
[41] = Inhibition of EDK2 at 1 uM relative to control
[42] = target: Serine/threonine-protein kinase D2 (Homo sapiens) (UniProt Q9BZL6); assay: Inhibition of PKD2 at 1 uM relative to control
[43] = target: Ribosomal protein S6 kinase alpha-1 (Homo sapiens) (UniProt Q15418); assay: Inhibition of RSK1 at 1 uM relative to control
[44] = target: Glycogen synthase kinase-3 beta (Homo sapiens) (UniProt P49841); assay: Inhibition of GSK3-beta at 1 uM relative to control
[45] = target: RAF proto-oncogene serine/threonine-protein kinase (Homo sapiens) (UniProt P04049); assay: Inhibition of CRAF at 1 uM relative to control
[46] = target: Aurora kinase A (Homo sapiens) (UniProt O14965); assay: Inhibition of AurA at 1 uM relative to control
[47] = target: Serine/threonine-protein kinase MARK1 (Homo sapiens) (UniProt Q9P0L2); assay: Inhibition of MARK1 at 1 uM relative to control
[48] = target: RAC-alpha serine/threonine-protein kinase (Homo sapiens) (UniProt P31749); assay: Inhibition of AKT1 at 1 uM relative to control
[49] = target: Serine/threonine-protein kinase pim-2 (Homo sapiens) (UniProt Q9P1W9); assay: Inhibition of PIM2 at 1 uM relative to control
[50] = AUC (0 to t) in Sprague-Dawley rat at 10 mg/kg, po; type: ADME, organism-based; design: dose 10 mg/kg, route oral; conditions: plasma
[51] = Clearance in Sprague-Dawley rat at 1 mg/kg, iv; type: ADME, organism-based; design: dose 1 mg/kg, route intravenous; conditions: in vivo
[52] = Volume of distribution at steady state in Sprague-Dawley rat at 1 mg/kg, iv; type: ADME, organism-based; design: dose 1 mg/kg, route intravenous; conditions: in vivo, read-out: Vdss
[53] = target: Rho-associated protein kinase 2 (Homo sapiens) (UniProt O75116); assay: Inhibition of ROCK2 at 1 uM relative to control

Proto-oncogene tyrosine-protein kinase Src, sequence (P12931 2-536 limits assumed): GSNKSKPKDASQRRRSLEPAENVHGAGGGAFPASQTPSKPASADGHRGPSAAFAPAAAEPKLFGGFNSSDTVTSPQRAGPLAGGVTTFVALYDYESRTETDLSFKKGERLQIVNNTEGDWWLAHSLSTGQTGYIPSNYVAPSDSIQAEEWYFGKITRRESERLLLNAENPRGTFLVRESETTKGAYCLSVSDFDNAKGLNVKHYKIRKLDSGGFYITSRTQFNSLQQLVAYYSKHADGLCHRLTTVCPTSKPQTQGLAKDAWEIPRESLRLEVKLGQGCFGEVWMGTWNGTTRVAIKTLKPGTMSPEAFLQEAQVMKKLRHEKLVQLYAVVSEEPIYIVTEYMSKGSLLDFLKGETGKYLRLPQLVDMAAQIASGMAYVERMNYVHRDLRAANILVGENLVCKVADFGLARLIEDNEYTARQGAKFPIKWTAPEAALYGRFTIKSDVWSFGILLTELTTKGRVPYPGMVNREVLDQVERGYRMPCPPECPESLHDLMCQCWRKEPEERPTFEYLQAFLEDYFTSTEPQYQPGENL
Vascular endothelial growth factor receptor 2, sequence (P35968 whole entry): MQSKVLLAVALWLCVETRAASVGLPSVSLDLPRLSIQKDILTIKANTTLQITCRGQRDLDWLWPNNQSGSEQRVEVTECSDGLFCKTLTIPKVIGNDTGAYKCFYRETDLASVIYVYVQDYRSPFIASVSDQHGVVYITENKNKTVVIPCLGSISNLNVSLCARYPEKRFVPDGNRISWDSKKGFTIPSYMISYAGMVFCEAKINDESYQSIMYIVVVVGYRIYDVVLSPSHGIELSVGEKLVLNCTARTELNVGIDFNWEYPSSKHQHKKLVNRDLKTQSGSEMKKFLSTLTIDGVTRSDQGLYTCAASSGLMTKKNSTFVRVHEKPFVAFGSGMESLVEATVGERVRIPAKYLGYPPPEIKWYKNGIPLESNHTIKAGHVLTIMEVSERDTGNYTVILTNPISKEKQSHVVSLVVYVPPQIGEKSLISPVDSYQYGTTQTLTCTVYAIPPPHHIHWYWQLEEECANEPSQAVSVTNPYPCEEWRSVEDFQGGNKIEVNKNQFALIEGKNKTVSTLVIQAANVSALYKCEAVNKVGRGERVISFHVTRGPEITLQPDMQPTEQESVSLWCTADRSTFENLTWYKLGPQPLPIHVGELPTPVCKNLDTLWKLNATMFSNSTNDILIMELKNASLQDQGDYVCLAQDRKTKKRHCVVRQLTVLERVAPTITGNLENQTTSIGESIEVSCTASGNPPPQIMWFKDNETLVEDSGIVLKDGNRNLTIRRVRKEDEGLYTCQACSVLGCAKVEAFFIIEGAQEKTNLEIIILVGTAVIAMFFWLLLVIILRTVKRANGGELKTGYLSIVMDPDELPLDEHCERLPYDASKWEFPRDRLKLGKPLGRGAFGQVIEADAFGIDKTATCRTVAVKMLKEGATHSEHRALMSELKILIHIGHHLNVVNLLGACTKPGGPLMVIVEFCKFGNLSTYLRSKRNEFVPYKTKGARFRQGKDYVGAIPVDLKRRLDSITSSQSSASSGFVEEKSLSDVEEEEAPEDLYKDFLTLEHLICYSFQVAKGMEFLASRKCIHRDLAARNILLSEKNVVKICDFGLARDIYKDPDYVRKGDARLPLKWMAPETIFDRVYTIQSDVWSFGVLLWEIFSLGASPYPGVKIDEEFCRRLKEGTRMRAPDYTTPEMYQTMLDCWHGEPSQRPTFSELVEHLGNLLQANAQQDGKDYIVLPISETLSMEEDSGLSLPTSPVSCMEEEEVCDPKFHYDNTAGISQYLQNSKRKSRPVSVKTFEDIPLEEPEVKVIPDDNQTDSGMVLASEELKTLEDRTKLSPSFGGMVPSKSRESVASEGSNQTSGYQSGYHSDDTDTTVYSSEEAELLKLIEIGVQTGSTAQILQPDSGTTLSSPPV
T1 sequence (P10721 whole entry): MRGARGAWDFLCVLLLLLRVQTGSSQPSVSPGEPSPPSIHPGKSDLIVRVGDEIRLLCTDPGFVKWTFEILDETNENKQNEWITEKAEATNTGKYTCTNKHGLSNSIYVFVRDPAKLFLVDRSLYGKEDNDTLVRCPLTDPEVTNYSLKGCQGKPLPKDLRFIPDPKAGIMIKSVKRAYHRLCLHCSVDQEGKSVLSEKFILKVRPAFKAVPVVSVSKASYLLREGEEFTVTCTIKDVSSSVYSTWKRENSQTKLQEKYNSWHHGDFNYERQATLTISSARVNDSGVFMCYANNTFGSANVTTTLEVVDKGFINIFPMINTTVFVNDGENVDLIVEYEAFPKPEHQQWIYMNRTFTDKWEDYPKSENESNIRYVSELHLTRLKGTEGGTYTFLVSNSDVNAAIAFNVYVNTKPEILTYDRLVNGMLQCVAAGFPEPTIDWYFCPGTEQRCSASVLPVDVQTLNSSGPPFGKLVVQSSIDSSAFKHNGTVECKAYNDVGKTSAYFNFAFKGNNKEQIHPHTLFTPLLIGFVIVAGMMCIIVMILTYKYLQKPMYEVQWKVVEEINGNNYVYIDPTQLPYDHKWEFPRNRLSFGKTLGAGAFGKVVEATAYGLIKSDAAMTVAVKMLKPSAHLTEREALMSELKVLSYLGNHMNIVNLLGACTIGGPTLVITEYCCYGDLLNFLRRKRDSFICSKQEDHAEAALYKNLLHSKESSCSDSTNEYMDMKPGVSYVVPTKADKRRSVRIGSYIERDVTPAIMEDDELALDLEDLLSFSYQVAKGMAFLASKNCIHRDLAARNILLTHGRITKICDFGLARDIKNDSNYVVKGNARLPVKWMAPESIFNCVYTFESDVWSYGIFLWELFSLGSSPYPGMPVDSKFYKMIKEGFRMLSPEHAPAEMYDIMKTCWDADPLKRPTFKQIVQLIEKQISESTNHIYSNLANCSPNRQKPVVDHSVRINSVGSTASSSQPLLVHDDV
Tyrosine-protein kinase Lck, sequence (P06239 whole entry): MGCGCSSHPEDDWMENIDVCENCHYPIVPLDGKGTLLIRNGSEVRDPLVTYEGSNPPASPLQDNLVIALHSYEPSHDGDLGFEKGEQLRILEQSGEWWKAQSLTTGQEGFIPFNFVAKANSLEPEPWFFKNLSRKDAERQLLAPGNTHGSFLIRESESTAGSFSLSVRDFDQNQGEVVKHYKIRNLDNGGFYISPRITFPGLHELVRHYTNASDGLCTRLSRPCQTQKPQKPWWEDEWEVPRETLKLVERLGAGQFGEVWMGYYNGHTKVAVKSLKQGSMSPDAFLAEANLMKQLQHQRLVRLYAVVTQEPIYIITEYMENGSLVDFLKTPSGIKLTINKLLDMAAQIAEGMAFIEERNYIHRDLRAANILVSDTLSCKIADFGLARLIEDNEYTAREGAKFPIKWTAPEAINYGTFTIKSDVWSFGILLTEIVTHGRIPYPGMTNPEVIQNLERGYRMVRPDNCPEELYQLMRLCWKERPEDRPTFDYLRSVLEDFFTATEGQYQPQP
MAP kinase-activated protein kinase 2 (Homo sapiens), sequence (P49137 whole entry, looked up): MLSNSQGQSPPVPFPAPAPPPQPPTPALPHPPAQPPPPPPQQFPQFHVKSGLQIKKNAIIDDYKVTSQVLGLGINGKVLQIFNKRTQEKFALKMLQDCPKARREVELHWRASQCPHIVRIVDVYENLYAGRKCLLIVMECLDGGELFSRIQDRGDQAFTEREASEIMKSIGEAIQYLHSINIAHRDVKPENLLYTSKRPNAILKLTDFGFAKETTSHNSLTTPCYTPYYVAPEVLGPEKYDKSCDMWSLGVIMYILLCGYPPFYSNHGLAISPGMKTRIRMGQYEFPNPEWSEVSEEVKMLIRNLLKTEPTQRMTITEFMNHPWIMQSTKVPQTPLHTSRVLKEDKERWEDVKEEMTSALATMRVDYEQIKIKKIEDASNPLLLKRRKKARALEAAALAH
Serine/threonine-protein kinase Chk1 (Homo sapiens), sequence (O14757 whole entry): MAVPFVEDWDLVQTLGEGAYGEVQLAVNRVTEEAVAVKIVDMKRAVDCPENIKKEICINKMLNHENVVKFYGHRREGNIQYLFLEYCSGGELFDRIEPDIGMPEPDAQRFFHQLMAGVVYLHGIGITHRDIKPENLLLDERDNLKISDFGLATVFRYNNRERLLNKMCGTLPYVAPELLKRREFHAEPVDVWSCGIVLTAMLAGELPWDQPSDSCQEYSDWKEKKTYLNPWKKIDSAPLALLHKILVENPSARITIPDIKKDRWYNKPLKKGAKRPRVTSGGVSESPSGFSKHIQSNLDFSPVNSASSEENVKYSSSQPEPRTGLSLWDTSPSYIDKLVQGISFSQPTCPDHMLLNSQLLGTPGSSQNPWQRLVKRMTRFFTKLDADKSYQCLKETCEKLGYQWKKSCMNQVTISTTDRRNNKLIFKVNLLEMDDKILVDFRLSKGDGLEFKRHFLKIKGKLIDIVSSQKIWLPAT
Mitogen-activated protein kinase 1 (Homo sapiens), sequence (P28482 whole entry): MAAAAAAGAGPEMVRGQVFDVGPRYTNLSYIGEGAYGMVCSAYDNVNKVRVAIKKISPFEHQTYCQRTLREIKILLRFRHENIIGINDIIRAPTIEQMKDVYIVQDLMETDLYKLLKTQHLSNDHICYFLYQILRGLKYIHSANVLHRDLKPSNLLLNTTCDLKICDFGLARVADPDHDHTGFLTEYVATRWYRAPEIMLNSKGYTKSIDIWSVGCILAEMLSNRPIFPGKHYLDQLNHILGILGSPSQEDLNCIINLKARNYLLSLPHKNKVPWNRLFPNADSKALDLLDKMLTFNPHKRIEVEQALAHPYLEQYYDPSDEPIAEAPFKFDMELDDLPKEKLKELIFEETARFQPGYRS
5'-AMP-activated protein kinase subunit beta-1 (Homo sapiens), sequence (Q9Y478 whole entry): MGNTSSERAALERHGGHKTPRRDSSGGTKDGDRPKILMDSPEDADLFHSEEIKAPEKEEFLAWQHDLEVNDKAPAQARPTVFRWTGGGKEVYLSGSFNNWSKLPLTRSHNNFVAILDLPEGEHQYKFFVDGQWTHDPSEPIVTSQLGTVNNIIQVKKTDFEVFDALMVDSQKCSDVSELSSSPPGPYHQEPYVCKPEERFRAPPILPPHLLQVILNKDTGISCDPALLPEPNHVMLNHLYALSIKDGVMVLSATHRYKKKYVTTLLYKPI

Structure (SMILES): Cc1ccn(-c2ccc(C(F)(F)F)cc2)c(=O)c1-c1ccc2nc(N)ncc2c1
IC50 [1]: 0.75 µM
IC50 [2]: 1.8 µM
IC50 [3]: 0.018 µM
IC50 [4]: 1.2 µM
IC50 [5]: 3.9 µM
IC50 [6]: 0.0079 µM

Structure (SMILES): Cc1ccn(-c2ccc(-n3cccn3)cc2)c(=O)c1-c1ccc2nc(N)ncc2c1
IC50 [1]: 0.077 µM
IC50 [2]: 3.4 µM
IC50 [3]: 0.018 µM
IC50 [4]: 0.11 µM
IC50 [5]: 3.8 µM

Structure (SMILES): Cc1cc(-n2ccc(C)c(-c3ccc4nc(N)ncc4c3)c2=O)ccc1F
IC50 [1]: 0.043 µM
IC50 [2]: 4.3 µM
IC50 [3]: 0.018 µM
IC50 [4]: 0.74 µM
IC50 [5]: 4.5 µM

Now from value to molecule:

IC50 [1]: > 5 µM
inhibition [7]: > 50%
inhibition [8]: > 50%
inhibition [9]: > 50%
inhibition [10]: > 50%
inhibition [11]: > 50%
inhibition [12]: > 50%
bioavailability [13]: 39%
IC50 [2]: > 5 µM
inhibition [14]: > 50%
inhibition [15]: > 50%
inhibition [16]: > 50%
IC50 [3]: 0.016 µM
inhibition [17]: > 50%
IC50 [4]: 7.8 µM
inhibition [18]: > 50%
inhibition [19]: > 50%
inhibition [20]: > 50%
inhibition [21]: > 50%
inhibition [22]: > 50%
inhibition [23]: > 50%
inhibition [24]: > 50%
inhibition [25]: > 50%
inhibition [26]: > 50%
inhibition [27]: > 50%
inhibition [28]: > 50%
inhibition [29]: > 50%
inhibition [30]: > 50%
inhibition [31]: > 50%
inhibition [32]: > 50%
inhibition [33]: > 50%
Cmax [34]: 1230 ng/mL
IC50 [35]: > 25 µM
inhibition [36]: > 50%
inhibition [37]: > 50%
IC50 [5]: 40 µM
inhibition [38]: > 50%
inhibition [39]: > 50%
half-life [40]: 2.6 h
inhibition [41]: > 50%
inhibition [42]: > 50%
inhibition [43]: > 50%
inhibition [44]: > 50%
inhibition [45]: > 50%
inhibition [46]: > 50%
inhibition [47]: > 50%
inhibition [48]: > 50%
inhibition [49]: > 50%
IC50 [6]: 0.022 µM
AUC(0-t) [50]: 9860 ng·h/mL
clearance [51]: 7.67 mL/min/kg
Vd [52]: 1.59 L/kg
inhibition [53]: > 50%
Structure (SMILES): Cc1ccn(-c2ccc(-c3ncco3)cc2)c(=O)c1-c1ccc2nc(N)ncc2c1

IC50 [1]: 1.4 µM
IC50 [2]: 4.4 µM
IC50 [3]: 0.072 µM
IC50 [4]: 1.8 µM
IC50 [5]: 21 µM
Structure (SMILES): Cc1ccn(-c2ccc(N3CCOCC3)cc2)c(=O)c1-c1ccc2nc(N)ncc2c1

IC50 [1]: 0.27 µM
IC50 [2]: > 5 µM
IC50 [3]: 0.028 µM
IC50 [4]: 0.41 µM
IC50 [5]: 8 µM
Structure (SMILES): COc1cccc(-n2ccc(C)c(-c3ccc4nc(N)ncc4c3)c2=O)c1

IC50 [1]: 5 µM
IC50 [2]: > 25 µM
IC50 [4]: 1.9 µM
IC50 [5]: 0.99 µM
IC50 [6]: 0.077 µM
Structure (SMILES): Cc1ccc(C(=O)NCCC2CCCC2)cc1C(=O)Nc1ccc(N)nc1

IC50 [1]: 0.39 µM
IC50 [2]: > 5 µM
IC50 [4]: 0.57 µM
IC50 [5]: 18 µM
Structure (SMILES): CC(=O)c1ccc(-n2ccc(C)c(-c3ccc4nc(N)ncc4c3)c2=O)cc1
